# Assays:
# Escherichia coli NIHJ = assay: MIC, plate method, standard strains; type: cell-based; conditions: unit assumed; for MIC Escherichia coli NIHJ: Table 4, standard strain; for MIC Esche--richin coil NIHJ: Table 3, standard strain
# Procedure: (§1) The minimum inhibitory concentration (MIC) was determined by the plate method disclosed in "Chemotherapy" (Japan), Vol. 16, (1968), pages 98-99. The culture medium used was a Heart infusion agar (pH 7.4). The number of the cells per plate used in the inoculum was 10^4 (10^6 cells/ml).
# Proteus vulgaris 3027 = assay: MIC, plate method, standard strains; type: cell-based; conditions: unit assumed
# Procedure: as §1
# Klebsiella pneumoniae [1] = assay: MIC, plate method, standard strains; type: cell-based; conditions: unit assumed
# Procedure: as §1
# [2] = test system: Pseudomonas aeruginosa I.F.O.; assay: MIC, plate method, standard strains; type: cell-based; conditions: unit assumed; for MIC Pseudomonas aeruginosa I.F.O.: Table 4, standard strain; for MIC Pseudomonas aeruginosa I.F.C: Table 3, standard strain
# Procedure: as §1
# [3] = test system: Staphylococcus aureus 209p; assay: MIC, plate method, standard strains; type: cell-based; conditions: unit assumed
# Procedure: as §1
# Klebsiella pneumoniae [4] = assay: MIC against clinical isolates; type: cell-based; conditions: Table 5-4, clinical isolate; unit assumed
# Pseudomonas aeruginosa = assay: MIC against clinical isolates; type: cell-based; conditions: Table 5-3, clinical isolate; unit assumed
# Shigella sonnei = assay: MIC against clinical isolates; type: cell-based; conditions: Table 5-5, clinical isolate; unit assumed
# Procedure: as §1
# (§2) MIC was determined in the same manner as in the preceding paragraph (1).
# Shigella flexneri = assay: MIC against clinical isolates; type: cell-based; conditions: Table 5-5, clinical isolate; unit assumed
# Procedure: as §1, §2
# Staphylococcus aureus = assay: MIC against clinical isolates; type: cell-based; conditions: Table 5-1, clinical isolate; unit assumed
# Escherichia coli = assay: MIC against clinical isolates; type: cell-based; conditions: Table 5-2, clinical isolate; unit assumed
# [5] = test system: β-lactamase, Pseudomonas aeruginosa GN 238; assay: Resistant activity against β-lactamase, iodometric assay; type: biochemical; conditions: β-lactamase from Pseudomonas aeruginosa GN 238; Potassium Penicillin G = 100
# Procedure: (3) Resistant activity against β-lactamase, Pseudomonas aerugionsa GN 238:
# The resistant activity of each compound against β-lactamase was measured in the manner described below.
# β-Lactamase was prepared from Pseudomonas aeruginosa GN 238. This microorganism was cultured in 100 ml of a medium containing 2 g of yeast extract, 10 g of polypeptone, 2 g of glucose, 7 g of disodium hydrogen phosphate, 2 g of potassium dihydrogen phosphate, 1.2 g of ammonium sulfate and 0.4 g of magnesium sulfate, per liter, in a 500-ml Erlenmeyer flask for 6 hrs. at 37° C. with shaking. The resulting cells were collected by centrifugation (5,000 r.p.m.×10 min.), washed three times with 0.1 M phosphate buffer (pH 7.0). Subsequently, the cells were subjected to sonication (20 KHz, 20 min.) and then centrifuged at 15,000 r.p.m. for 60 min. By using the supernatant of enzyme fluid, the resistance of each compound against β-lactamase was determined by the iodometric assay method. Each numeral shown in Table 7 is a relative activity value calculated by assuming as 100 the activity of the control Potassium Penicillin G.
# Proteus morganii = assay: MIC against clinical isolates; type: cell-based; conditions: Table 5-6, clinical isolate; unit assumed
# Proteus mirabilis = assay: MIC against clinical isolates; type: cell-based; conditions: Table 5-6, clinical isolate; unit assumed
# [6] = Table 3, standard strain, Heart infusion agar pH 7.4
smiles,measurement,setting,value
"Cc1csc(SCC2=C(C(=O)O)N3C(=O)C(NC(=O)C(NC(=O)N4CCN(C)C(=O)C4=O)c4ccccc4)C3SC2)n1 (single isomer, unassigned) [compound 71]",MIC Escherichia coli NIHJ,Escherichia coli NIHJ,< 0.79 µg/mL
same,MIC Proteus vulgaris 3027,"Proteus vulgaris 3027; Table 4, standard strain",< 0.79 µg/mL
same,MIC Klebsiella pneumoniae,"Klebsiella pneumoniae [1]; Table 4, standard strain",1.56 µg/mL
same,MIC Pseudomonas aeruginosa I.F.O.,[2],50 µg/mL
same,MIC Staphylococcus aureus 209p,"[3]; Table 4, standard strain",< 0.79 µg/mL
CCCCCCN1CCN(C(=O)N[C@@H](C(=O)N[C@@H]2C(=O)N3[C@@H]2SC(C)(C)[C@@H]3C(=O)O)c2ccccc2)C(=O)C1 [Compound 13],MIC Esche--richin coil NIHJ,Escherichia coli NIHJ,< 1.57 µg/mL
same,MIC Proteus vulgaris 3027,"Proteus vulgaris 3027; Table 3, standard strain",< 1.57 µg/mL
same,MIC Klebsiella pneumoniae,"Klebsiella pneumoniae [1]; Table 3, standard strain",< 1.57 µg/mL
same,MIC Staphylococcus aureus 209p,[3]; [6],< 1.57 µg/mL
same,MIC Klebsiella pneumoniae GN 917,Klebsiella pneumoniae [4],12.5 µg/mL
same,MIC Klebsiella pneumoniae GN 3850,Klebsiella pneumoniae [4],6.25 µg/mL
same,MIC Pseudomonas aeruginosa GN 2987,Pseudomonas aeruginosa,12.5 µg/mL
same,MIC Shigella sonnei JS 11232,Shigella sonnei,12.5 µg/mL
same,MIC Shigella sonnei JS 11755,Shigella sonnei,3.13 µg/mL
same,MIC Shigella flexneri JS 11215,Shigella flexneri,12.5 µg/mL
same,MIC Shigella flexneri JS 11839,Shigella flexneri,1.57 µg/mL
same,MIC Staphylococcus aureus F-1,Staphylococcus aureus,12.5 µg/mL
same,MIC Staphylococcus aureus F-2,Staphylococcus aureus,1.57 µg/mL
same,MIC Staphylococcus aureus F-4,Staphylococcus aureus,6.25 µg/mL
same,MIC Staphylococcus aureus MS 8588,Staphylococcus aureus,3.13 µg/mL
same,MIC Staphylococcus aureus MS 8596,Staphylococcus aureus,3.13 µg/mL
same,MIC Staphylococcus aureus MS 8684,Staphylococcus aureus,3.13 µg/mL
same,MIC Staphylococcus aureus MS 8713,Staphylococcus aureus,3.13 µg/mL
same,MIC Escherichia coli GN 3435,Escherichia coli,3.13 µg/mL
same,MIC Escherichia coli GN 3452,Escherichia coli,3.13 µg/mL
same,MIC Escherichia coli GN 3481,Escherichia coli,6.25 µg/mL
same,MIC Escherichia coli K-1,Escherichia coli,3.13 µg/mL
same,MIC Escherichia coli K-2,Escherichia coli,6.25 µg/mL
same,MIC Escherichia coli K-4,Escherichia coli,6.25 µg/mL
CC1(C)S[C@@H]2[C@H](NC(=O)[C@H](NC(=O)N3CCN(C(=O)Nc4ccccc4)C(=O)C3)c3ccccc3)C(=O)N2[C@H]1C(=O)O [Compound 33],MIC Esche--richin coil NIHJ,Escherichia coli NIHJ,< 1.57 µg/mL
same,MIC Pseudomonas aeruginosa I.F.C,[2],50 µg/mL
same,MIC Staphylococcus aureus 209p,[3]; [6],< 1.57 µg/mL
"CC1(C)SC2C(NC(=O)C(NC(=O)N3CCN(CCCl)C(=O)C3=O)c3ccccc3)C(=O)N2C1C(=O)O (single isomer, unassigned) [Compound 44]",MIC Esche--richin coil NIHJ,Escherichia coli NIHJ,< 1.57 µg/mL
same,MIC Proteus vulgaris 3027,"Proteus vulgaris 3027; Table 3, standard strain",< 1.57 µg/mL
same,MIC Klebsiella pneumoniae,"Klebsiella pneumoniae [1]; Table 3, standard strain",< 1.57 µg/mL
same,MIC Pseudomonas aeruginosa I.F.C,[2],6.25 µg/mL
same,MIC Staphylococcus aureus 209p,[3]; [6],< 1.57 µg/mL
CCCCCCCCN1CCN(C(=O)N[C@@H](C(=O)N[C@@H]2C(=O)N3[C@@H]2SC(C)(C)[C@@H]3C(=O)O)c2ccccc2)CC1=O [Compound 30],"Relative activity (%), resistant activity against β-lactamase",[5],3%
"CC(=O)OCC1=C(C(=O)O)N2C(=O)[C@@H](NC(=O)Cc3cccs3)[C@H]2SC1 [drawing 248, reference compound]",MIC Escherichia coli NIHJ,Escherichia coli NIHJ,< 1.57 µg/mL
same,MIC Proteus vulgaris 3027,"Proteus vulgaris 3027; Table 4, standard strain",100 µg/mL
same,MIC Klebsiella pneumoniae,"Klebsiella pneumoniae [1]; Table 4, standard strain",< 1.57 µg/mL
same,MIC Pseudomonas aeruginosa I.F.O.,[2],> 200 µg/mL
same,MIC Staphylococcus aureus 209p,"[3]; Table 4, standard strain",< 1.57 µg/mL
"Cn1nnnc1SCC1=C(C(=O)O)N2C(=O)C(NC(=O)C(NC(=O)N3CCN(CCO)C(=O)C3=O)c3ccc(O)cc3)C2SC1 (single isomer, unassigned) [compound 83]",MIC Escherichia coli NIHJ,Escherichia coli NIHJ,< 1.57 µg/mL
same,MIC Proteus vulgaris 3027,"Proteus vulgaris 3027; Table 4, standard strain",< 1.57 µg/mL
same,MIC Klebsiella pneumoniae,"Klebsiella pneumoniae [1]; Table 4, standard strain",< 1.57 µg/mL
same,MIC Pseudomonas aeruginosa I.F.O.,[2],25 µg/mL
same,MIC Staphylococcus aureus 209p,"[3]; Table 4, standard strain",1.57 µg/mL
"O=C(Cc1cccs1)N[C@@H]1C(=O)N2C(C(=O)[O-])=C(C[n+]3ccccc3)CS[C@H]12 [drawing 250, reference compound]",MIC Escherichia coli NIHJ,Escherichia coli NIHJ,> 3.13 µg/mL
same,MIC Proteus vulgaris 3027,"Proteus vulgaris 3027; Table 4, standard strain",200 µg/mL
same,MIC Klebsiella pneumoniae,"Klebsiella pneumoniae [1]; Table 4, standard strain",3.13 µg/mL
same,MIC Pseudomonas aeruginosa I.F.O.,[2],200 µg/mL
same,MIC Staphylococcus aureus 209p,"[3]; Table 4, standard strain",< 1.57 µg/mL
"CC1(C)S[C@@H]2[C@H](NC(=O)[C@H](N)c3ccccc3)C(=O)N2[C@H]1C(=O)O [Sodium Ampicillin, reference compound]",MIC Proteus morganii,Proteus morganii,< 1.57 µg/mL
same,MIC Proteus mirabilis,Proteus mirabilis,< 1.57 µg/mL
same,MIC Shigella sonnei JS 11232,Shigella sonnei,> 200 µg/mL
same,MIC Shigella sonnei JS 11755,Shigella sonnei,6.25 µg/mL
same,MIC Shigella flexneri JS 11839,Shigella flexneri,1.57 µg/mL
same,MIC Staphylococcus aureus MS 8588,Staphylococcus aureus,6.25 µg/mL
same,MIC Staphylococcus aureus MS 8596,Staphylococcus aureus,1.56 µg/mL
same,MIC Staphylococcus aureus MS 8684,Staphylococcus aureus,1.56 µg/mL
same,MIC Staphylococcus aureus MS 8713,Staphylococcus aureus,3.13 µg/mL
same,MIC Escherichia coli GN 3435,Escherichia coli,3.13 µg/mL
same,MIC Escherichia coli GN 3452,Escherichia coli,6.25 µg/mL
same,MIC Escherichia coli GN 3481,Escherichia coli,6.25 µg/mL
same,MIC Escherichia coli K-1,Escherichia coli,6.25 µg/mL
same,MIC Escherichia coli K-2,Escherichia coli,6.25 µg/mL
"CCN1CCN(C(=O)NC(C(=O)NC2C(=O)N3C(C(=O)O)=C(COC)CSC23)c2ccccc2)C(=O)C1=O (single isomer, unassigned) [compound 80]",MIC Escherichia coli NIHJ,Escherichia coli NIHJ,< 0.1 µg/mL
same,MIC Proteus vulgaris 3027,"Proteus vulgaris 3027; Table 4, standard strain",6.25 µg/mL
same,MIC Klebsiella pneumoniae,"Klebsiella pneumoniae [1]; Table 4, standard strain",3.13 µg/mL
same,MIC Pseudomonas aeruginosa I.F.O.,[2],50 µg/mL
same,MIC Staphylococcus aureus 209p,"[3]; Table 4, standard strain",0.79 µg/mL
"CCN1CCN(C(=O)NC(C(=O)NC2C(=O)N3C(C(=O)O)=C(CSc4cnn[nH]4)CSC23)c2ccccc2)C(=O)C1=O (single isomer, unassigned) [compound 75]",MIC Escherichia coli NIHJ,Escherichia coli NIHJ,< 0.4 µg/mL
same,MIC Proteus vulgaris 3027,"Proteus vulgaris 3027; Table 4, standard strain",12.5 µg/mL
same,MIC Klebsiella pneumoniae,"Klebsiella pneumoniae [1]; Table 4, standard strain",1.57 µg/mL
same,MIC Pseudomonas aeruginosa I.F.O.,[2],50 µg/mL
same,MIC Staphylococcus aureus 209p,"[3]; Table 4, standard strain",1.57 µg/mL
CC1(C)S[C@@H]2[C@H](NC(=O)[C@H](NC(=O)N3CC(=O)N(Cc4ccccc4)CC3=O)c3ccccc3)C(=O)N2[C@H]1C(=O)O [Compound 35],MIC Pseudomonas aeruginosa I.F.C,[2],100 µg/mL
CC1(C)SC2C(NC(=O)C(NC(=O)N3CC(=O)NC(=O)C3)c3ccccc3)C(=O)N2C1C(=O)O (stereo not shown) [compound 59],MIC Esche--richin coil NIHJ,Escherichia coli NIHJ,< 1.57 µg/mL
same,MIC Proteus vulgaris 3027,"Proteus vulgaris 3027; Table 3, standard strain",3.13 µg/mL
same,MIC Klebsiella pneumoniae,"Klebsiella pneumoniae [1]; Table 3, standard strain",200 µg/mL
same,MIC Pseudomonas aeruginosa I.F.C,[2],25 µg/mL
same,MIC Staphylococcus aureus 209p,[3]; [6],< 1.57 µg/mL
"CC1(C)S[C@@H]2[C@H](NC(=O)Cc3ccccc3)C(=O)N2[C@H]1C(=O)O [Potassium Penicillin G, reference compound]","Relative activity (%), resistant activity against β-lactamase",[5],100%
"CC1(C)S[C@@H]2[C@H](NC(=O)C(c3ccccc3)S(=O)(=O)O)C(=O)N2[C@H]1C(=O)O (stereo partly shown) [Sodium Sulbenicillin, reference compound]","Relative activity (%), resistant activity against β-lactamase",[5],50%
same,MIC Shigella sonnei JS 11232,Shigella sonnei,> 200 µg/mL
same,MIC Shigella sonnei JS 11755,Shigella sonnei,> 200 µg/mL
same,MIC Shigella flexneri JS 11215,Shigella flexneri,> 200 µg/mL
same,MIC Shigella flexneri JS 11839,Shigella flexneri,12.5 µg/mL
same,MIC Staphylococcus aureus F-1,Staphylococcus aureus,6.25 µg/mL
same,MIC Staphylococcus aureus F-3,Staphylococcus aureus,6.25 µg/mL
same,MIC Staphylococcus aureus F-4,Staphylococcus aureus,6.25 µg/mL
same,MIC Escherichia coli GN 3435,Escherichia coli,6.25 µg/mL
same,MIC Escherichia coli GN 3452,Escherichia coli,12.5 µg/mL
same,MIC Escherichia coli GN 3481,Escherichia coli,12.5 µg/mL
same,MIC Escherichia coli K-1,Escherichia coli,6.25 µg/mL
same,MIC Escherichia coli K-2,Escherichia coli,12.5 µg/mL
same,MIC Escherichia coli K-4,Escherichia coli,6.25 µg/mL
CC1(C)S[C@@H]2[C@H](NC(=O)[C@H](NC(=O)N3CC(=O)N(C(=O)c4ccccc4)CC3=O)c3ccccc3)C(=O)N2[C@H]1C(=O)O [Compound 34],MIC Proteus vulgaris 3027,"Proteus vulgaris 3027; Table 3, standard strain",50 µg/mL
same,MIC Klebsiella pneumoniae,"Klebsiella pneumoniae [1]; Table 3, standard strain",50 µg/mL
same,MIC Pseudomonas aeruginosa I.F.C,[2],100 µg/mL
CC1(C)S[C@@H]2[C@H](NC(=O)[C@H](NC(=O)N3CCN(C(=O)c4ccc(Cl)cc4)CC3=O)c3ccccc3)C(=O)N2[C@H]1C(=O)O [Compound 8],MIC Proteus vulgaris 3027,"Proteus vulgaris 3027; Table 3, standard strain",3.13 µg/mL
same,MIC Pseudomonas aeruginosa I.F.C,[2],100 µg/mL

# From US4327097A, “Novel penicillins” (Toyama Chemical Co., Ltd., priority 1974, dated 1982)
